The values that follow come from patent US10316028B2, “Orexin receptor antagonists” (Heptares Therapeutics Limited, priority 2012, dated 2019).

The target in the assay is T1, human Orexin-2 receptor (Homo sapiens, UniProt O43614).
T1 construct: expressed in transfected cells; host or cells: HEK293 cells (transient transfection, Genejuice); membranes
T1 sequence (O43614 1-444): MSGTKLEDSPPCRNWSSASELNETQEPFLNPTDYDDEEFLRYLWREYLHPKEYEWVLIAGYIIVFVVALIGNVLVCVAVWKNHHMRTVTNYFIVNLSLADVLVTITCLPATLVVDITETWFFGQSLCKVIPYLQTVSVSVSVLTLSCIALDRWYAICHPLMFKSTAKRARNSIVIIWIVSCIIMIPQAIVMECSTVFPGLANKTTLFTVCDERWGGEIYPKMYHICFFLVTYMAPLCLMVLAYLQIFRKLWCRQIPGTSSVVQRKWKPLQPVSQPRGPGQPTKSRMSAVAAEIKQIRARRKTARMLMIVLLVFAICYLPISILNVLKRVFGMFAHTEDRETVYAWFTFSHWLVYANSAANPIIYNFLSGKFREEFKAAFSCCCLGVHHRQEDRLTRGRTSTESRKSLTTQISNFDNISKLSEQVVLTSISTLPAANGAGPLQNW
Description: 3H-EMPA radioligand binding assay. The following applies: 3H-EMPA displacement, membranes of HEK293 cells transfected with human Orexin-2 receptor; KI by Cheng-Prussoff; read-out: OX2 pKi ave (converted). Summed up:
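Membranes from HEK293 cells transiently transfected with human orexin-2 receptor cDNA, assayed with [3H]EMPA. Bound ligand collected on PEI-treated GF/B filters and counted by scintillation; IC50 from inhibition curves, Ki by Cheng-Prusoff.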
On to `CSc1cccc(N2C(=O)N(Cc3c(F)cccc3Cl)c3ccc(F)cc3S2(=O)=O)c1` [Example 74, 4-(2-Chloro-6-fluorobenzyl)-7-fluoro-2-[3-(methylsulfanyl)phenyl]-2H-1,2,4-benzothiadiazin-3(4H)-one 1,1-dioxide], for which the Ki was 11.7 nM.
Take `COc1cc(N2C(=O)N(Cc3c(F)cc(F)cc3F)c3ccccc3S2(=O)=O)cc(OC)n1` [Example 148, 2-(2,6-Dimethoxypyridin-4-yl)-4-(2,4,6-trifluorobenzyl)-2H-1,2,4-benzothiadiazin-3(4H)-one 1,1-dioxide]: the Ki was 1.38 nM.
With `O=C1N(Cc2c(F)cccc2Cl)c2ccccc2S(=O)(=O)N1Cc1ccc(F)cc1` [Example 39, 4-(2-chloro-6-fluorobenzyl)-2-(4-fluorobenzyl)-2H-1,2,4-benzothiadiazin-3(4H)-one 1,1-dioxide], the Ki is 20 nM.
The same measure for `COc1ccc(N2C(=O)N(Cc3c(F)cc(O)cc3F)c3ccccc3S2(=O)=O)cc1OC` [Example 116, 4-(2,6-Difluoro-4-hydroxybenzyl)-2-(3,4-dimethoxyphenyl)-2H-1,2,4-benzothiadiazin-3(4H)-one 1,1-dioxide]: 1.15 nM; for `CSc1cccc(N2C(=O)N(Cc3ccccc3Cl)c3ccccc3S2(=O)=O)c1` [Example 22, 4-(2-chlorobenzyl)-2-[3-(methylsulfanyl)phenyl]-2H-1,2,4-benzothiadiazin-3(4H)-one 1,1-dioxide]: 23.4 nM.
The value for `COc1ccc(N2C(=O)N(Cc3cccc(C#N)c3)c3ccccc3S2(=O)=O)cc1OC` [Example 4, 3-{[2-(3,4-dimethoxyphenyl)-1,1-dioxido-3-oxo-2,3-dihydro-4H-1,2,4-benzothiadiazin-4-yl]methyl}benzonitrile] was 355 nM; that for `COc1ccc(N2C(=O)N(Cc3ncccc3F)c3ccccc3S2(=O)=O)cc1OC` [Example 88, 2-(3,4-Dimethoxyphenyl)-4-[(3-fluoropyridin-2-yl)methyl]-2H-1,2,4-benzothiadiazin-3(4H)-one 1,1-dioxide] was 28.2 nM.
The same measure for `COc1cccc(CCN2C(=O)N(Cc3c(F)cccc3F)c3ccccc3S2(=O)=O)c1` [Example 66, 4-(2,6-Difluorobenzyl)-2-[2-(3-methoxyphenyl)ethyl]-2H-1,2,4-benzothiadiazin-3(4H)-one 1,1-dioxide]: 550 nM; for `CCc1ccc(N2C(=O)N(Cc3c(F)cccc3Cl)c3ccccc3S2(=O)=O)cc1` [Example 37, 4-(2-chloro-6-fluorobenzyl)-2-(4-ethylphenyl)-2H-1,2,4-benzothiadiazin-3(4H)-one 1,1-dioxide]: 5.01 nM.
Consider `COc1ccc(N2C(=O)N(Cc3c(F)cc(F)cc3F)c3ccccc3S2(=O)=O)cc1OC` [Example 105, 2-(3,4-Dimethoxyphenyl)-4-(2,4,6-trifluorobenzyl)-2H-1,2,4-benzothiadiazin-3(4H)-one 1,1-dioxide], for which the Ki was 1.95 nM.
The same measure for `COc1cc(OC)cc(N2C(=O)N(Cc3ccccc3C)c3ccccc3S2(=O)=O)c1` [Example 15, 2-(3,5-dimethoxyphenyl)-4-(2-methylbenzyl)-2H-1,2,4-benzothiadiazin-3(4H)-one 1,1-dioxide]: 29.5 nM; for `COc1c(C)cc(N2C(=O)N(Cc3ccc(F)cc3Cl)c3ccccc3S2(=O)=O)cc1C` [Example 80, 4-(2-Chloro-4-fluorobenzyl)-2-(4-methoxy-3,5-dimethylphenyl)-2H-1,2,4-benzothiadiazin-3(4H)-one 1,1-dioxide]: 7.59 nM; for `CNc1ncc(N2C(=O)N(Cc3c(F)cc(OC)cc3F)c3ncccc3S2(=O)=O)cc1OC` [Example 177, 2-[5-Methoxy-6-(methylamino)pyridin-3-yl]-4-(2,6-difluoro-4-methoxybenzyl)-2H-pyrido[2,3-e][1,2,4]thiadiazin-3(4H)-one 1,1-dioxide]: 2.19 nM.
For the molecule `CSc1cccc(N2C(=O)N(Cc3c(F)cccc3Cl)c3cc(F)ccc3S2(=O)=O)c1` [Example 76, 4-(2-Chloro-6-fluorobenzyl)-6-fluoro-2-[3-(methylsulfanyl)phenyl]-2H-1,2,4-benzothiadiazin-3(4H)-one 1,1-dioxide], the Ki is 14.8 nM.
On to `COc1ccc(N2C(=O)N(Cc3ccc(C)cc3)c3ccccc3S2(=O)=O)cc1OC` [Example 7, 2-(3,4-dimethoxyphenyl)-4-(4-methylbenzyl)-2H-1,2,4-benzothiadiazin-3(4H)-one 1,1-dioxide], for which the Ki is 37.2 nM.
In the case of `Cc1ccc(N2C(=O)N(Cc3ccccc3F)c3ccccc3S2(=O)=O)cc1C` [Example 57, 4-(2-fluorobenzyl)-2-(3,4-dimethylphenyl)-2H-1,2,4-benzothiadiazin-3(4H)-one 1,1-dioxide], the Ki is 23.4 nM.
As to `COc1ccc(N2C(=O)N(Cc3ccccc3C)c3c(F)cccc3S2(=O)=O)cn1` [Example 130, 5-Fluoro-2-(6-methoxypyridin-3-yl)-4-(2-methylbenzyl)-2H-1,2,4-benzothiadiazin-3(4H)-one 1,1-dioxide], the Ki is 87.1 nM.
On to `COc1cc(N2C(=O)N(Cc3c(F)cccc3F)c3ccccc3S2(=O)=O)cc(OC)n1` [Example 167, 4-(2,6-Difluorobenzyl)-2-(2,6-dimethoxypyridin-4-yl)-2H-1,2,4-benzothiadiazin-3(4H)-one 1,1-dioxide], for which the Ki was 2.19 nM.
With `COc1ccc(N2C(=O)N(Cc3c(F)cc(F)cc3F)c3ncccc3S2(=O)=O)cc1OC` [Example 93, 2-(3,4-Dimethoxyphenyl)-4-(2,4,6-trifluorobenzyl)-2H-pyrido[2,3-e][1,2,4]thiadiazin-3(4H)-one 1,1-dioxide], the Ki is 1.2 nM.
The value for `COc1ccc(N2C(=O)N(Cc3ccccc3Cl)c3ccccc3S2(=O)=O)cc1OC` [Example 19, 4-(2-chlorobenzyl)-2-(3,4-dimethoxyphenyl)-2H-1,2,4-benzothiadiazin-3(4H)-one 1,1-dioxide] was 18.6 nM; that for `CSc1cccc(N2C(=O)N(Cc3ccc(F)cc3Cl)c3ccccc3S2(=O)=O)c1` [Example 50, 4-(2-chloro-4-fluorobenzyl)-2-[3-(methylsulfanyl)phenyl]-2H-1,2,4-benzothiadiazin-3(4H)-one 1,1-dioxide] was 35.5 nM; that for `COc1cc(N2C(=O)N(Cc3ncc(F)cc3C)c3ccccc3S2(=O)=O)cc(OC)n1` [Example 162, 2-(2,6-Dimethoxypyridin-4-yl)-4-[(5-fluoro-3-methylpyridin-2-yl)methyl]-2H-1,2,4-benzothiadiazin-3(4H)-one 1,1-dioxide] was 18.6 nM.
Turning to `COc1cc(F)c(CN2C(=O)N(c3cccc(S(C)(=O)=O)c3)S(=O)(=O)c3ccccc32)c(F)c1` [Example 111, 4-(2,6-Difluoro-4-methoxybenzyl)-2-[3-(methylsulfonyl)phenyl]-2H-1,2,4-benzothiadiazin-3(4H)-one 1,1-dioxide], the Ki is 2.24 nM.
Take `COc1cc(F)c(CN2C(=O)N(c3cnc(OC)c(C)c3)S(=O)(=O)c3ccccc32)c(F)c1` [Example 171, 4-(2,6-difluoro-4-methoxybenzyl)-2-(6-methoxy-5-methylpyridin-3-yl)-2H-1,2,4-benzothiadiazin-3(4H)-one 1,1-dioxide]: the Ki is 1.78 nM.
The same measure for `COc1ccc(N2C(=O)N(Cc3c(F)cc(Cl)cc3F)c3ncccc3S2(=O)=O)cc1OC` [Example 97, 4-(4-Chloro-2,6-difluorobenzyl)-2-(3,4-dimethoxyphenyl)-2H-pyrido[2,3-e][1,2,4]thiadiazin-3(4H)-one 1,1-dioxide]: 0.661 nM.
The same measure for `COc1ccc(N2C(=O)N(Cc3ccc(Cl)cc3F)c3ccccc3S2(=O)=O)cc1OC` [Example 72, 4-(4-Chloro-2-fluorobenzyl)-2-(3,4-dimethoxyphenyl)-2H-1,2,4-benzothiadiazin-3(4H)-one 1,1-dioxide]: 10.5 nM; for `COC(=O)c1ccc(OC)c(CN2C(=O)N(c3cc(OC)cc(OC)c3)S(=O)(=O)c3ccccc32)c1` [Example 17, methyl 3-{[2-(3,5-dimethoxyphenyl)-1,1-dioxido-3-oxo-2,3-dihydro-4H-1,2,4-benzothiadiazin-4-yl]methyl}-4-methoxybenzoate]: 13.5 nM; for `Cc1cc(CN2C(=O)N(Cc3c(F)cccc3Cl)c3ccccc3S2(=O)=O)no1` [Example 129, 4-(2-Chloro-6-fluorobenzyl)-2-[(5-methyl-1,2-oxazol-3-yl)methyl]-2H-1,2,4-benzothiadiazin-3(4H)-one 1,1-dioxide]: 115 nM.
The value for `COc1ccc(N2C(=O)N(Cc3c(F)cccc3Cl)c3ncccc3S2(=O)=O)cc1OC` [Example 94, 4-(2-Chloro-6-fluorobenzyl)-2-(3,4-dimethoxyphenyl)-2H-pyrido[2,3-e][1,2,4]thiadiazin-3(4H)-one 1,1-dioxide] was 0.776 nM.
For `Cc1ccc(N2C(=O)N(Cc3c(F)cccc3Cl)c3ccccc3S2(=O)=O)cc1Cl` [Example 25, 4-(2-chloro-6-fluorobenzyl)-2-(3-chloro-4-methylphenyl)-2H-1,2,4-benzothiadiazin-3(4H)-one 1,1-dioxide], the Ki is 2.51 nM.
In the case of `COC(=O)c1ccc(OC)c(CN2C(=O)N(c3ccc(OC)c(OC)c3)S(=O)(=O)c3ccccc32)c1` [Example 60, methyl 3-{[2-(3,4-dimethoxyphenyl)-1,1-dioxido-3-oxo-2,3-dihydro-4H-1,2,4-benzothiadiazin-4-yl]methyl}-4-methoxybenzoate], the Ki is 40.7 nM.
